Laboratory results reported in publication PMC5988656, “Phase I studies of AZD1208, a proviral integration Moloney virus kinase inhibitor in solid and haematological cancers” (British Journal of Cancer, 2018).

Assays:
pBAD S112 = experiment: PD: phosphorylated BAD at S112 by MesoScale Discovery ELISA, AML study; assay type: in vivo, human
Experimental: For AZD1208 PD evaluations, bone marrow aspirates were collected (pretreatment and Cycle 1, Day 1, 2–6 h following administration of AZD1208) and peripheral blood samples were collected (pretreatment on Cycle 1, Day 1; and on-treatment at Cycle 1, Day 1 at 3, 6 and 24 h post-dose; Cycle 1, Day 14 at pre-dose, 3 and 6 h post-dose). Mononuclear cells were isolated, and protein lysates prepared, for subsequent analysis of phosphorylated BAD at S112 by MesoScale Discovery ELISA and phosphorylation of 4E-BP1 at S65 by NanoPro immunoassay [unpublished data: McEachern et al. 2018, manuscript in preparation]. Samples were considered evaluable when the baseline biomarker levels were above the background signal (as defined by buffer-only negative control samples) and within the linear range of assay. Additionally, only blood samples containing detectable blasts were considered for analysis.

AML blasts = experiment: RPPA protein profiling in AML blasts during therapy; assay type: in vivo, human; settings: samples from six patients
Experimental: In the AML study, a protein profiling analysis was carried out on primary blasts obtained from peripheral blood of patients (n = 6) before and during therapy with AZD1208. Due to time-sensitive aspects of the analysis, only patients from the MD Anderson Cancer Center (MDACC, Houston, TX, USA) were eligible. Whole blood was collected in heparinised tubes. Leukaemia cells were then isolated using Ficoll–Hypaque (specific gravity, 1.086; Life Technologies, Grand Island, NY, USA) density gradient separation, as previously described.[15] Cell number and mean cell volume were determined using a Coulter Channelyzer (Coulter Electronics, Hialeah, FL, USA).
AML blasts isolated from patients during therapy with AZD1208 were harvested and submitted for reverse phase protein array (RPPA) analysis to evaluate protein level changes across a set of 171 antibodies,[16] graphed using GraphPad Prism software (GraphPad Software, Inc., San Diego, CA, USA).

[1] = test system: MYC-driven prostate cancer models; parameters: method as in PMID 25505253; settings: cited from earlier work
[2] = test system: patients with AML or advanced solid tumours; experiment: Both dose-escalation studies pooled: adverse events; assay type: in vivo, human
Experimental: Safety and tolerability were assessed from the time of informed consent until the end of follow-up (defined as 30 and 28 days after study treatment was discontinued for the AML and solid tumour studies, respectively) by evaluation of adverse events (AEs), vital signs, ECGs and laboratory assessments. The CTCAE (version 4.0) was utilised to grade all AE events.
AEs were summarised by Medical Dictionary for Regulatory Activities (MedDRA) system organ class, MedDRA preferred term and CTCAE grade. Summary statistics of mean, median, standard deviation, minimum, maximum and number of observations were used.

With N[C@@H]1CCCN(c2c(/C=C3\SC(=O)NC3=O)cccc2-c2ccccc2)C1 [AZD1208] the “Patients with reductions in pBAD S112” value (pBAD S112; evaluable bone marrow samples, single dose) was 7/17, the “Patients with ≥50% reduction from baseline of pBAD S112” value (pBAD S112; peripheral blood, all dose levels) was 9/10 and the “Patients with reductions in 4E-BP1 S65 (RPPA)” value (AML blasts) was “three”. The “Patients with reductions in BAD S112 (RPPA)” value (AML blasts) was “four”, the Tumour growth [1] was “significantly decreased tumour growth” and the “Patients who experienced adverse events” value [2] was 98.5%. The “Patients with gastrointestinal adverse events” value [2] was 92.5%.
